# From patent US4002740A, “Tridecapeptide compositions and methods” (priority 1975, dated 1977)
# “Also recorded” adds a separate entry of the source. Ends that are not written are not given here.
# Key:
# [1] = system: Thy-1+ T cell differentiation from prothymocytes (spleen cell populations from nu/nu mice); assay: induction in vitro of Thy-1+ T cell differentiation from prothymocytes (acquisition of Thy-1.2 as marker); assay type: cell-based; details: for induction of T cell differentiation (qualitative): induction assay in vitro, no concentration stated
# Procedure: (§1) to determine the activity and characteristics of the polypeptide, determinations were carried out on healthy 5-6 week old nu/nu mice of both sexes, the mice being bred on a BALB/c background (thymocytes expressing Thy-1.2 surface antigen) and maintained under conventional conditions. For the antisera, anti Thy-1.2 sera were prepared in Thy-1 congenic mice.
# (§2) For the induction of in vitro of Thy-1^+ T cell or CR^+ B cell differentiation, the induction of thymocyte differentiation from prothymocytes in vitro was performed as described by Komuro and Boyse, (Lancet 1, 740, 1973), using the acquisition of Thy-1.2 as a marker of T cell differentiation. The induction of CR^+ B cell differentiation from CR^- B cell precursors in vitro was performed under similar conditions using as the assay criterion, the capacity of CR^+ B cells to bind sheep erythrocytes coated with subagglutinating quantities of rabbit antibody and nonlytic complement. Spleen cell populations from healthy nu/nu mice fractionated on discontinuous bovine serium albumin gradients were used as the source of both precursor types (Thy-1 and […]) because they have few or no Thy-1^+ cells and low numbers of CR^+ cells.
# [2] = system: CR+ B cell differentiation from CR- B cell precursors (spleen cell populations from nu/nu mice); assay: induction in vitro of CR+ B cell differentiation from CR- B cell precursors (binding of sheep erythrocytes coated with antibody and complement); assay type: cell-based
# Procedure: as §1, §2
sequence,measurement,setting,value
"GEQRKDVYVQLYL [tridecapeptide, H2 N--Gly--Glu--Gln--Arg--Lys--Asp--Val--Tyr--Val--Gln--Leu--Tyr--Leu--COOH]",concentration from which the polypeptide is maximally active,[1]; in vitro,about 100 nanogram per ml
same,concentration from which the polypeptide is active,"[1]; in vitro, lower end of active concentrations",1 nanogram per ml
same,induction of T cell differentiation (qualitative),[1]; listed as polypeptide,inducing the differentiation of T-lymphocytes
same,induction of T cell differentiation (qualitative),[1]; listed as synthetic peptide,induced the differentiation
same,induction of differentiation of CR+ B cells,"[2]; in vitro, concentrations 0.01 ng to 10 μg/ml",does not induce; also recorded: did not induce
same,induction of CR+ B cell differentiation (qualitative),"[2]; induction assay in vitro, no concentration stated, listed as synthetic peptide",did not induce
